pIC50: −log10 of the molar value.
What was measured:
BZD (central) = test: Benzodiazepine receptor (central) binding; details: [^3H]flunitrazepam, Rat cerebral cortex
5-HT3 = 5-HT3 (Homo sapiens, UniProt P46098); test: Serotonin receptor 5-HT3 binding; details: [^3H]BRL 43694, Human recombinant CHO cells, read-out: CR6086 Activity at 10µM
B2 = B2 (Homo sapiens, UniProt P30411); test: B2 receptor binding; details: [^3H]bradykinin, Human recombinant CHO cells, read-out: CR6086 Activity at 10µM
GAL2 = GAL2 (Homo sapiens, UniProt O43603); test: Galanin receptor GAL2 binding; details: [^125I]galanin, Human recombinant CHO cells, read-out: CR6086 Activity at 10µM
GAL2, sequence (O43603 whole entry): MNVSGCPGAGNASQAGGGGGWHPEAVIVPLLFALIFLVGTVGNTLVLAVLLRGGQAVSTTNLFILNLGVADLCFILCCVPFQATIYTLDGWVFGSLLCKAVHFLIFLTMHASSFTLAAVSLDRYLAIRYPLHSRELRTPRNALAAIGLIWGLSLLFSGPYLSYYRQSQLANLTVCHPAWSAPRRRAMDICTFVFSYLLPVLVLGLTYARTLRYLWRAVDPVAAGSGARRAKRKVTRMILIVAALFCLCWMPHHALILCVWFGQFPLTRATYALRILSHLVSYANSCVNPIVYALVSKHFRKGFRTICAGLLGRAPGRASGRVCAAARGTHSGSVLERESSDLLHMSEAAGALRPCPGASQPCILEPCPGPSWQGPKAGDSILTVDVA

AR = AR (Homo sapiens, UniProt P10275, T878A); test: Nuclear receptor AR binding; details: [^3H]methyltrienolone, LNCaP cells, read-out: CR6086 Activity at 10µM
AR, sequence (P10275 whole entry T878A): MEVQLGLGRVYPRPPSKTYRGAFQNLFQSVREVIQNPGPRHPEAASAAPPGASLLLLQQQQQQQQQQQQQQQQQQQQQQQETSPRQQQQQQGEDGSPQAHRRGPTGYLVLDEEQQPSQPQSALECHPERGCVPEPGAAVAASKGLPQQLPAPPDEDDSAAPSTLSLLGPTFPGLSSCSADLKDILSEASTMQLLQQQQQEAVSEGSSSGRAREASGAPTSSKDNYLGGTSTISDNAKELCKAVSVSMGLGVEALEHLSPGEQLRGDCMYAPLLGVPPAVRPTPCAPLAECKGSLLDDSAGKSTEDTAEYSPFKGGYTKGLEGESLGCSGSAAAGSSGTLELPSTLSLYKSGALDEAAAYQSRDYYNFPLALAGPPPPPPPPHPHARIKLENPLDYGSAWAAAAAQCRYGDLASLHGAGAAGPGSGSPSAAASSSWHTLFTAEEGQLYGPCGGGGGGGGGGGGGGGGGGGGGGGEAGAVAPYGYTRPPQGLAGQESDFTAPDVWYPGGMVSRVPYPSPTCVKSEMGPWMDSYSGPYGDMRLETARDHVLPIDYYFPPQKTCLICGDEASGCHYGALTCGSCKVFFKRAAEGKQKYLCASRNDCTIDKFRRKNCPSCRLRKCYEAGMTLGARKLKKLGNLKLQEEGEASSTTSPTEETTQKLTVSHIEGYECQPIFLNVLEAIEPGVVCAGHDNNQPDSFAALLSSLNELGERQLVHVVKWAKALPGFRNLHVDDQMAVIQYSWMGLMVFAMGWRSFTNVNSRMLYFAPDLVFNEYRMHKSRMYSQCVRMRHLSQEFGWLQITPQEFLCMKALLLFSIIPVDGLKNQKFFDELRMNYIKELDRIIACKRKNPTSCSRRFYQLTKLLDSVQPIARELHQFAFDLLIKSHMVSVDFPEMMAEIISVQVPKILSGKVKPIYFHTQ

[1] = system: arthritic mice (collagen-induced arthritis model); test: CIA in mice, first study: clinical score and paw swelling; type: in vivo, mouse; details: 10 days; CR6086 30 and 60 mg/kg, naproxen 60 mg/kg oral once daily; etanercept 10 mg/kg i.p. every other day
Procedure: Male DBA/1 mice were immunised by intradermal injection at the base of the tail with an emulsion of 200 μg of bCII in CFA containing 3 mg/ml Mycobacterium tuberculosis. Non-immunised mice served as the negative control of disease. Animals were monitored by visual inspection for appearance of peripheral oedema. […] Upon onset, animals were recruited and randomised. Recruitment was given a cut-off at day 40. Upon recruitment, arthritis clinical score was assigned, and oedema was measured via caliper.
In a first study, mice were randomised into the following treatment groups: vehicle, 30 mg/kg CR6086, 60 mg/kg CR6086, 60 mg/kg naproxen and 10 mg/kg etanercept. Animals received the test drugs for 10 days. CR6086 and naproxen were administered orally once daily, whereas etanercept was administered intraperitoneally every other day. Animals treated with vehicle, 60 mg/kg CR6086, naproxen and etanercept were additionally analysed for the proportion of populations of Th17 cells, Th1 cells, regulatory T cells, B cells, macrophages, neutrophils and dendritic cells by fluorescence-activated cell sorting (FACS) after collection of blood, draining lymph nodes and joints.
Oedema measurement was performed every day before treatment, and all animals were blindly scored for clinical signs of arthritis as follows: 0 = normal; 1 = slight swelling and/or erythema; 2 = pronounced oedematous swelling; and 3 = ankyloses and severe swelling. A score of 0.5 was given to swollen toe/toes or when inflammation was localised to one part of the foot. Each limb was measured separately, with a final score based on the sum of the scores from all four paws.

PPARγ = PPARγ (Homo sapiens, UniProt P37231); test: Nuclear receptor PPARγ binding; details: [^3H]rosiglitazone, Human recombinant E.Coli, read-out: CR6086 Activity at 10µM
PPARγ, sequence (P37231 whole entry): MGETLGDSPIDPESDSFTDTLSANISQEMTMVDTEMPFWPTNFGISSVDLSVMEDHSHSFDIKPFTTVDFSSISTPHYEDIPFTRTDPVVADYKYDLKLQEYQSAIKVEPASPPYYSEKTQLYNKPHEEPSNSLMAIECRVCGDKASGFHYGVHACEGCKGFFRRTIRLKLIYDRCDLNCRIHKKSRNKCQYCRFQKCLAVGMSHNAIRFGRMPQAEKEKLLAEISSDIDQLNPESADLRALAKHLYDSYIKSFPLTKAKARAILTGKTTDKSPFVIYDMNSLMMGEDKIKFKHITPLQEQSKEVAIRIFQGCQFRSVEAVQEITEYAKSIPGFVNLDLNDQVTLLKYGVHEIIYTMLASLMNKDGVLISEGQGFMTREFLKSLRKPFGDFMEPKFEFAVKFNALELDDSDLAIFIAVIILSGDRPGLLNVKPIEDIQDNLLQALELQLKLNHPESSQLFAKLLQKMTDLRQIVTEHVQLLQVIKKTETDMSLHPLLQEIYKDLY

M5 = M5 (Homo sapiens, UniProt P08912); test: Muscarinic acetylcholine receptor M5 binding; details: [^3H]4-DAMP, Human recombinant CHO cells, read-out: CR6086 Activity at 10µM
M5, sequence (P08912 whole entry): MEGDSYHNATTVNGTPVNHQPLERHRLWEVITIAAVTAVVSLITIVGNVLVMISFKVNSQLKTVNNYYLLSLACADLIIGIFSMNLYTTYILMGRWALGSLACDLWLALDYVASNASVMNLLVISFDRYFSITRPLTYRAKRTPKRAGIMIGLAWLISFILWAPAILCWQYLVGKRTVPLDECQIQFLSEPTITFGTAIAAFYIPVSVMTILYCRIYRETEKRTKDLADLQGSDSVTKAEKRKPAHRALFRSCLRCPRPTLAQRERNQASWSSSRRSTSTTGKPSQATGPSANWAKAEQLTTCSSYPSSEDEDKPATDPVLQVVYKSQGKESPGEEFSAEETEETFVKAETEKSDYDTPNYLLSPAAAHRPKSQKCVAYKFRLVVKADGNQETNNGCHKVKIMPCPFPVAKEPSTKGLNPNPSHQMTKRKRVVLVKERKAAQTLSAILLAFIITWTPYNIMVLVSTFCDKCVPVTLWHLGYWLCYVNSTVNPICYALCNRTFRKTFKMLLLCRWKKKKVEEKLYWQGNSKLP

TP (TXA2/PGH2) = TP (TXA2/PGH2) (Homo sapiens, UniProt P21731); test: Eicosanoid receptor TP binding; details: [^3H]SQ 29548, HEK-293 cells, read-out: CR6086 Activity at 10µM
TP (TXA2/PGH2), sequence (P21731 whole entry): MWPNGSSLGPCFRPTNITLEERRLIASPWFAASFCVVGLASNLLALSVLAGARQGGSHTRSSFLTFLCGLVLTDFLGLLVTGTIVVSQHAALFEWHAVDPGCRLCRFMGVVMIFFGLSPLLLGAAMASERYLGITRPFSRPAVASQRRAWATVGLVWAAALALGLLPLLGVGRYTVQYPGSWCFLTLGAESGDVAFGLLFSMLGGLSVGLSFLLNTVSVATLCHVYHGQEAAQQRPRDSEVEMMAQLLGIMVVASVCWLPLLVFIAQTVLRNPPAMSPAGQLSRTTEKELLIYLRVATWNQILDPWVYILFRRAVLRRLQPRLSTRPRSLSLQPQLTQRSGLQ

α2 (non-selective) = test: Adrenergic receptor α2 binding; details: [^3H]RX 821002, Rat cerebral cortex
GABA (non-selective) = test: GABA receptor (non-selective) binding; details: [^3H]GABA, Rat cerebral cortex
[2] = Plasma protein binding (equilibrium dialysis, [^14C]CR6086); type: in vitro ADME; details: rat, 0.2–200 μM, read-out: unbound fraction (fu)
Procedure: CR6086 concentrations in rat plasma were determined by high-performance liquid chromatography (Agilent 1200 series; Agilent Technologies, Santa Clara, CA, USA) coupled with a triple-quadrupole mass spectrometer (API 4000 QTRAP; SCIEX, Concord, ON, Canada). A ZORBAX SB-C18 2.0 × 50-mm, 3.5-μm column (Agilent Technologies) in isocratic conditions was used with mobile phase 0.1% formic acid in water/acetonitrile (68:32 vol/vol). The method was linear within the dynamic range 1.0–10,000 ng/ml (lower to upper limit of quantification). CR6086 plasma protein binding was determined in the 0.2–200 μM concentration range using [^14C]CR6086 and equilibrium dialysis. EP4 receptor occupancy (RO) was calculated on the basis of CR6086 concentrations according to the following formula: RO%=Cave/Cave+Ki×100,

human EP4 receptor = target: T1, human EP4 receptor (Homo sapiens, UniProt P35408); test: AlphaScreen cAMP functional assay, PGE2-stimulated HEK293 membranes; type: biochemical
T1 construct: expressed in transfected cells
T1 sequence (P35408 whole entry): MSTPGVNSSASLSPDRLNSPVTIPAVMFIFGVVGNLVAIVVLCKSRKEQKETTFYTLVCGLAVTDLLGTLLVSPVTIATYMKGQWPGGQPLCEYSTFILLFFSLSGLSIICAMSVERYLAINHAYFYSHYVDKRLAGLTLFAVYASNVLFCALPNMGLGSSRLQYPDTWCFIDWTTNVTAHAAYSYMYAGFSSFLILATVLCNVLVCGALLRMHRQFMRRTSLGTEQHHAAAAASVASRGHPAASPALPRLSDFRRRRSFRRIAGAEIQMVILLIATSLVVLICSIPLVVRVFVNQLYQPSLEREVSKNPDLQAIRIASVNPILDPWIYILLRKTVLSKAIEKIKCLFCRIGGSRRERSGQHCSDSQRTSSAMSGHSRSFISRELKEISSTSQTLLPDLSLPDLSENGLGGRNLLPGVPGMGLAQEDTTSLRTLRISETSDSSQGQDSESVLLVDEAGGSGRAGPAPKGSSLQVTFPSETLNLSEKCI
Procedure: In studies of CR6086 as a functional receptor antagonist, we took advantage of the evidence that activated EP4 receptors couple with Gs proteins to stimulate adenylyl cyclase and increase cyclic adenosine monophosphate (cAMP) cellular levels. Cell membranes prepared from the HEK293 cell line were suspended in 1 ml of stimulation buffer (Hanks’ balanced salt solution 1× + BSA 0.1% + 3-isobutyl-1-methylxanthine 0.5 mM + HEPES 5 mM + MgCl2 10 mM + guanosine triphosphate 1 nM + guanosine diphosphate 10 μM + adenosine triphosphate 100 μM, pH 7.4). The AlphaScreen cAMP functional assay (PerkinElmer) was used according to the manufacturer’s instructions. Because AlphaScreen beads are light-sensitive, the cAMP assay was performed under subdued laboratory lighting, and any incubation involving the beads was carried out in the dark. The assay is based on the competition between endogenous cAMP and exogenously added biotinylated cAMP. The capture of cAMP is achieved by using a specific antibody conjugated to […]. Cell membranes were dispensed into white 384-well microplates at a final concentration of 1 μg per well. […] After 1 h of incubation, the plate was read using the EnVision platform (PerkinElmer) to determine the cAMP level (excitation 680 nm, emission 520 or 620 nm). […]

B2, sequence (P30411 whole entry): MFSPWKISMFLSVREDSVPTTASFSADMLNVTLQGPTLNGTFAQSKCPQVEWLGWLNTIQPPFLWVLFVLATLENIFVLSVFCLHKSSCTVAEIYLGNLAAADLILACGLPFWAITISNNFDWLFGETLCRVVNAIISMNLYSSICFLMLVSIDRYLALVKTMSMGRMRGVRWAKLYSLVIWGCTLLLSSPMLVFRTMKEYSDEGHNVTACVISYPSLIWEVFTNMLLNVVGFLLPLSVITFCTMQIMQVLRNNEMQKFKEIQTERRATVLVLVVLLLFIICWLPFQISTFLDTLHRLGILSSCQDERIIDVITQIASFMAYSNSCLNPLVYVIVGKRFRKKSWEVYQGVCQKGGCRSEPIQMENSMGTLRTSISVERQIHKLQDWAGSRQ
5-HT3, sequence (P46098 24-478): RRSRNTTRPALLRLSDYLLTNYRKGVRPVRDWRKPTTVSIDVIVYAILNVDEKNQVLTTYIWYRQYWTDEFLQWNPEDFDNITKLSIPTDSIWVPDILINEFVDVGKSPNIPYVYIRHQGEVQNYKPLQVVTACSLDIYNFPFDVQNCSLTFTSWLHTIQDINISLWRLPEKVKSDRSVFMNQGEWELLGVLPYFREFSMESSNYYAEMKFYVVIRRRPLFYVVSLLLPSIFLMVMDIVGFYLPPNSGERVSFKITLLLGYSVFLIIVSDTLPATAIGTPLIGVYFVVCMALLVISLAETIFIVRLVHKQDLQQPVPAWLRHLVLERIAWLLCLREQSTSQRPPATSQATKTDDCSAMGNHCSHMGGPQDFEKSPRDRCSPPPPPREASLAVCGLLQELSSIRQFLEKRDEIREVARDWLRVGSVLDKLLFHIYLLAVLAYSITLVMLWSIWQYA

For `O=C([O-])c1ccc(C2(NC(=O)[C@H]3CC4(CCN3Cc3ccc(C(F)(F)F)cc3)CC4)CC2)cc1.[Na+]` [CR6086, Sodium (R)-4-(1-(6-(4-(trifluoromethyl)benzyl)-6-azaspiro[2.5]octane-5-carboxamido)cyclopropyl)benzoate], the “CR6086 Activity at 10µM” value (BZD (central)) was “IN (IN = < 20% displacement or inhibition (all tables))”, the inhibition at 10 µM (5-HT3) was less than 20% and the inhibition at 10 µM (B2) was less than 20%. The inhibition at 10 µM (GAL2) was less than 20%, the inhibition at 10 µM (AR) was less than 20% and the “effect on disease parameters (visual clinical score, paw swelling) vs vehicle” value [1] was “significantly improved”. The inhibition at 10 µM (PPARγ) was less than 20%, the inhibition at 10 µM (M5) was less than 20% and the inhibition at 10 µM (TP (TXA2/PGH2)) was less than 20%. The “CR6086 Activity at 10µM” value (α2 (non-selective)) was “IN (IN = < 20% displacement or inhibition (all tables))”, the “CR6086 Activity at 10µM” value (GABA (non-selective)) was “IN (IN = < 20% displacement or inhibition (all tables))” and the fraction unbound [2] was 0.0484. For the same molecule, the pIC50 (human EP4 receptor; 3 nM PGE2, HEK293 membranes, read-out: IC50 on PGE2-stimulated cAMP production) was 7.66 and the functional behaviour (human EP4 receptor; cAMP functional assays) was “pure EP4 antagonist”.
